The text below walks through data of ChEMBL document CHEMBL1122304, “Synthesis and antiallergy activity of 5-oxo-5H-thiazolo[2,3-b]quinazolinecarboxylic acids” (1983).

Molecules are shown by their SMILES. Bounds are passed on as bounds.

What all share (type): functional
The test system of assay [1] is Rattus norvegicus. The assay is described as follows: Antiallergic activity in the rat passive cutaneous anaphylaxis (PCA) test upon peroral administration; (range = 0.04-0.14). Particulars: po, read-out: ID50 (the source's name).
In assay [2] the test system is Rattus norvegicus. Description: Antiallergic activity in the rat passive cutaneous anaphylaxis (PCA) test at 32 mg/kg upon peroral administration. Particulars: route oral.
The test system of assay [3] is Rattus norvegicus. Description: Antiallergic activity in the rat passive cutaneous anaphylaxis (PCA) test upon intraperitoneal administration of 16 mg/kg of the compound. Particulars: ip.
Assay [4] relates to Rattus norvegicus. Description: Antiallergic activity in the rat passive cutaneous anaphylaxis (PCA) test upon peroral administration. The settings on record: po, read-out: ID50 (the source's name).
Assay [5] has as its system Rattus norvegicus. The assay is described as follows: Antiallergic activity in the rat passive cutaneous anaphylaxis (PCA) test at 16 mg/kg upon intraperitoneal administration. The settings on record: ip.
Assay [6] relates to Rattus norvegicus. Description: Antiallergic activity in the rat passive cutaneous anaphylaxis (PCA) test upon peroral administration; (range = 0.08-0.18). The settings on record: po, read-out: ID50 (the source's name).
For assay [7], the system named is Rattus norvegicus. Description: Antiallergic activity in the rat passive cutaneous anaphylaxis (PCA) test at 32 mg/kg upon peroral administration after 10-minute pretreatment time. The settings on record: route oral.
Assay [8] has as its system Rattus norvegicus. The assay is described as follows: Antiallergic activity in the rat passive cutaneous anaphylaxis (PCA) test upon peroral administration; (range = 0.58-1.91). Particulars: po, read-out: ID50 (the source's name).
Assay [9] concerns Rattus norvegicus. Description: Antiallergic activity in the rat passive cutaneous anaphylaxis (PCA) test upon peroral administration;(range = 0.07-0.23). Particulars: po, read-out: ID50 (the source's name).
The subject of assay [10] is Rattus norvegicus. Description: Antiallergic activity in the rat passive cutaneous anaphylaxis (PCA) test upon peroral administration; (range = 0.18-0.61). Particulars: po, read-out: ID50 (the source's name).
Assay [11] concerns Rattus norvegicus. Description: Antiallergic activity in the rat passive cutaneous anaphylaxis (PCA) test upon peroral administration; (range of 0.89-6.85). The settings on record: po, read-out: ID50 (the source's name).
For assay [12], the system named is Rattus norvegicus. Description: Antiallergic activity in the rat passive cutaneous anaphylaxis (PCA) test upon intraperitoneal administration of 8 mg/kg of the compound. The settings on record: ip.
In assay [13] the test system is Rattus norvegicus. The assay is described as follows: Antiallergic activity in the rat passive cutaneous anaphylaxis (PCA) test upon peroral administration; (range = 0.98-4.02). The settings on record: po, read-out: ID50 (the source's name).
Assay [14] has as its system Rattus norvegicus. Description: Antiallergic activity in the rat passive cutaneous anaphylaxis (PCA) test at 32 mg/kg upon peroral administration with a 10-minute pretreatment time. Particulars: route oral.
The test system of assay [15] is Rattus norvegicus. The assay is described as follows: Antiallergic activity in the rat passive cutaneous anaphylaxis (PCA) test upon peroral administration; (range = 2.14-29.01). The settings on record: po, read-out: ID50 (the source's name).

One may read the inhibition in vivo as the change of the read-out against control, counted positive when it falls.

Consider `COc1ccc2nc3sc(C(=O)O)cn3c(=O)c2c1`, for which the ED50 in [1] was found to be 0.07 mg/kg. In assay [2], this molecule returned an inhibition in vivo at 32 mg/kg of 78%. This molecule also came in with an inhibition in vivo at 16 mg/kg in assay [3] of 100%.
With `CC(C)c1cc(C(C)C)c2nc3sc(C(=O)O)cn3c(=O)c2c1`, the ED50 in assay [4] is more than 10 mg/kg. This molecule also displayed an inhibition in vivo at 32 mg/kg in [2] of 19%. Further, at 16 mg/kg the inhibition in vivo in assay [5] was 100%.
With `CC(C)c1cn2c(=O)c3cc(C(=O)O)ccc3nc2s1`, the ED50 in [6] was 0.11 mg/kg. Further, the inhibition in vivo at 32 mg/kg in [2] was determined as 100%. This molecule also returned an inhibition in vivo at 16 mg/kg in assay [3] of 100%.
For `CCC(C)c1ccc2nc3sc(C(=O)O)cn3c(=O)c2c1` (stereo unspecified), the inhibition in vivo at 32 mg/kg in assay [7] is 64%. Moreover, in assay [8], the ED50 amounted to 1.01 mg/kg. This molecule also came in with an inhibition in vivo at 16 mg/kg in [3] of 59%.
On to `Cc1cn2c(=O)c3cc(C(=O)O)ccc3nc2s1`, for which the ED50 in assay [4] was more than 10 mg/kg. The molecule further had an inhibition in vivo at 32 mg/kg in assay [2] of 79%.
Consider `CSc1ccc2nc3sc(C(=O)O)cn3c(=O)c2c1`, for which the ED50 in assay [9] was 0.12 mg/kg. This molecule also displayed an inhibition in vivo at 32 mg/kg in assay [2] of 87%.
`CC(C)c1ccc2nc3sc(C(=O)O)cn3c(=O)c2c1`: the ED50 in assay [10] was found to be 0.33 mg/kg. In addition, 32 mg/kg produced 86% inhibition in vivo in [2]. The molecule further yielded an inhibition in vivo at 16 mg/kg in assay [5] of 89%.
On to `COc1cc2nc3sc(C(=O)O)cn3c(=O)c2cc1OC`, for which 16 mg/kg produced 89% inhibition in vivo in assay [3].
Regarding `CC(C)Cc1ccc2nc3sc(C(=O)O)cn3c(=O)c2c1`, the ED50 in assay [11] amounted to 2.12 mg/kg. The inhibition in vivo at 32 mg/kg in assay [7] came to 78%. This molecule returned an inhibition in vivo at 16 mg/kg in [3] of 62%.
Take `O=C(O)c1cc(=O)c2c(OCC(O)COc3cccc4oc(C(=O)O)cc(=O)c34)cccc2o1` [CROMOLYN SODIUM]: in assay [7], the inhibition in vivo at 32 mg/kg is 18%. For the same molecule, the inhibition in vivo at 8 mg/kg in assay [12] amounted to 46%.
In turn, `O=C(O)c1cn2c(=O)c3ccccc3nc2s1` displayed an inhibition in vivo at 16 mg/kg in assay [3] of 80%.
For `CC(C)c1cc2c(=O)n3cc(C(=O)O)ccc3nc2s1`, in assay [2], the inhibition in vivo at 32 mg/kg was 54%. Further, the inhibition in vivo at 16 mg/kg in [5] was found to be 89%.
Consider `C[S+]([O-])c1ccc2nc3sc(C(=O)O)cn3c(=O)c2c1` (stereo unspecified), for which the ED50 in assay [13] amounted to 1.82 mg/kg. Besides, the inhibition in vivo at 32 mg/kg in [14] is 67%. For the same molecule, the inhibition in vivo at 16 mg/kg in assay [3] is 55%.
Consider `O=C(O)c1cn2c(=O)c3cc(C4CC4)ccc3nc2s1`, for which, in [15], the ED50 came out at 6.02 mg/kg. The molecule also yielded an inhibition in vivo at 32 mg/kg in assay [2] of 100%.
With `O=C(O)c1ccc2nc3sccn3c(=O)c2c1`, the ED50 in assay [4] is more than 10 mg/kg. The same molecule yielded an inhibition in vivo at 32 mg/kg in assay [2] of 66%. In assay [3], this molecule came in with an inhibition in vivo at 16 mg/kg of 62%.
